Series [1] can be described thus: Solubility in fasted state simulated intestinal fluid (FaSSIF). Type of series: physicochemical. As to conditions: thermodynamic from solid, After 4 hours at room temperature. The source says:
Experimental Example 2: Confirmation of Solubility of Examples 1 to 5 in FaSSIF
The solubility of the solid dispersions prepared in Examples 1 to 5 in fasted state simulated intestinal fluid (FaSSIF) was confirmed, and the results are shown in Table 1.
Experimental Example 4: Confirmation of Solubility of Examples 6 to 7 in FaSSIF
The solubility of the solid dispersions prepared in Examples 6 to 7 in fasted state simulated intestinal fluid (FaSSIF) was confirmed in the same manner as in Experimental Example 2, and the results are shown in Table 2.

The nature of series [2]: Pharmacokinetic test (in vivo), oral administration, plasma concentration by LC-MS/MS. Details: species or system rats. As to conditions: 10 mg/kg. Here is the method: Experimental Example 5: Confirmation of Bioavailability of Examples 1 and 6
Specifically, the drug was administered orally to rats, and blood was collected from the jugular vein at a predetermined time. The collected blood was centrifuged to separate plasma, pretreated, and then the concentration was analyzed by LC-MS/MS. Non-compartmental pharmacokinetic parameters were calculated using WinNonlin (Phoenix™, version 6.1) from the analyzed blood concentration-time data of the drug, and the results are shown in Table 3.

With `COCCOc1cc(F)c(N2CCN(c3nc4c(nnn4C)c(=O)[nH]3)CC2)c(F)c1` [Compound of Chemical Formula I], in series [1] (Table 1 (Experimental Example 2)), the solubility at 4 h was 1.89 µg/mL. The molecule also yielded a solubility at 4 h in series [1] (Table 2 (Experimental Example 4)) of 1.66 µg/mL. Also, the “AUClast Fold change” value in series [2] (relative to the compound of Chemical Formula I) is 1.00. For the same molecule, in series [2] (rat, plasma), the AUC(0-t) worked out at 5460 ng·h/mL, the peak level (Cmax) was 1020 ng/mL, the Tmax is 1 h and the half-life is 5.39 h.
